Results published in article PMC5736709, “Unravelling the specificity and mechanism of sialic acid recognition by the gut symbiont Ruminococcus gnavus” (Nature Communications, 2017).
“And” between values parts separate entries of the source, which are not always exact repeats. Equal values may be shown once. “Also recorded” adds a separate entry of the source. Read-outs that look alike come from different tables or passages of the source.

Columns and labels:
Design in all cases: species or system Ruminococcus gnavus ATCC 29149
RgCBM40 [1] = biological target: T1, RgCBM40 (Mediterraneibacter gnavus (Ruminococcus gnavus), UniProt A7B557); experiment: STD NMR of sialoglycans with RgCBM40 WT; conditions: 1 mM sialoglycan, 50 μM RgCBM40 WT, 288 K; 'exception' = monosaccharides for which binding was not detected
T1 sequence (A7B557 entry or part of it): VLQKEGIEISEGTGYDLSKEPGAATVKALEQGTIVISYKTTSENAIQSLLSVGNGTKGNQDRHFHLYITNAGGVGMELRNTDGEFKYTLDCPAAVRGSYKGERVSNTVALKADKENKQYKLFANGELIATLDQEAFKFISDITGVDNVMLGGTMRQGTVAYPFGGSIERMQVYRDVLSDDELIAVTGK
Procedure: ^1H and ^13C resonance assignment for all the sugars was performed on the bases of 1D ^1H, 2D DQF-COSY, TOCSY, HSQC and NOESY experiments run on the free ligands in unbuffered D2O, pH 7.0. For STD NMR experiments, all the samples consisted of 1 mM sialoglycans and 50 μM RgCBM40 (WT or I95A mutant) in D2O buffer solution of 10 mM Tris-d11 pH 7.8 and 100 mM NaCl (ligand: protein ratio 20:1). An STD pulse sequence that included 2.5 ms and 5 ms trim pulses and a 3 ms spoil gradient was used. Saturation was achieved applying a train of 50 ms Gaussian pulses (0.40 mW) on the f2 channel, at 0.60 p.p.m. (on-resonance experiments) and 40 p.p.m. (off-resonance experiments). The broad protein signals were removed using a 40 ms spinlock (T1ρ) filter. All the experiments were recorded at ^1H frequency of 800.23 MHz on a Bruker Avance III spectrometer equipped with a 5 mm probe TXI 800 MHz H-C/N-D-05 Z BTO, at 288 K. For all the sialoglycans in the presence of RgCBM40, an STD experiment with a saturation time of 2 s and a relaxation delay of 5 s was performed, as a first test for binding. For the confirmed binders, the STD NMR experiments were carried out at different saturation times (0.5, 1, 2, 3, 4 and 5 s) with 1 K scans and relaxation delay of 5 s, in order to obtain the binding epitope mapping. The resulting build-up curves for each proton were fitted mathematically to a mono-exponential equation (y = a×[1-exp(b×x)]), from which the initial slopes (a×b) were obtained. For each ligand, the binding epitope mapping was obtained by dividing the initial slopes by the one of the H7 proton of the corresponding sialic acid ring, to which an arbitrary value of 100% was assigned. This normalisation of the STD values allows the comparison across all the sialoglycans.

RgCBM40 [2] = biological target: T1, RgCBM40; experiment: ITC of sialoglycans binding to RgCBM40 wild type; conditions: RgCBM40 WT; for Kd: ITC in PBS, 115-230 μM protein in cell, syringe 10 mM sugar (25 mM for Neu5Ac), * = estimate only, Kd too high to determine
Procedure: Isothermal titration calorimetry (ITC) experiments were performed using the PEAQ-ITC system (Malvern, Malvern, UK) with a cell volume of 200 µl. Prior to titration protein samples were exhaustively dialysed into PBS. The ligand was dissolved in the dialysis buffer. The cell protein concentration was 115 µM (except for mutant I95A where it was 173 µM and the wild-type interaction with 6′SL where it was 230 µM) and the syringe ligand concentration was 10 mM (25 mM for Neu5Ac). Controls with titrant (sugar) injected into buffer only were subtracted from the data. Analysis was performed using Malvern software, using a single-binding site model. The stoichiometry of binding sites was set to 1.0 as this was evident from the crystal structure. Quantitative and most qualitative experiments were carried out in triplicate.

RgGH33 D282A = experiment: Sialoglycan microarray binding of RgGH33 D282A; conditions: RgGH33 D282A at 200 µg ml^−1
Procedure: (§1) Glycan microarrays were fabricated using epoxide-derivatized slides as previously described. Printed glycan microarray slides were blocked by ethanolamine, washed and dried. Slides were then fitted in a multi-well microarray hybridisation cassette (AHC4X8S, ArrayIt, Sunnyvale, CA, USA) to divide into 8 subarrays. The subarrays were blocked with ovalbumin (1% w/v) in PBS (pH 7.4) for 1 h at room temperature, with gentle shaking. Subsequently, the blocking solution was removed and diluted protein samples of RgCBM40 and RgGH33 D282A with various concentrations were added to each subarray. After incubating the samples for 2 h at room temperature with gentle shaking, the slides were washed. Diluted anti-His-HiLyte Flour 555 antibodies in PBS were added to the subarrays, incubated for 1 h at room temperature, washed and dried. The microarray slides were scanned by Genepix 4000B microarray scanner (Molecular Devices Corp., Union City, CA, USA). The data analysis was performed using Genepix Pro 7.0 analysis software (Molecular Devices Corp.). It is important to note that glycans on the array with sialic acid O-acetyl groups undergo gradual losses of these labile ester groups. Therefore, definitive conclusions about 9-O-acetylation are only possible in instances wherein binding is exclusively to the O-acetylated sialoglycan spot, and not to the corresponding non-O-acetylated spot.

RgCBM40 [3] = biological target: T1, RgCBM40; experiment: Sialoglycan microarray binding of RgCBM40; conditions: for Binding of RgCBM40 on sialoglycan microarray: RgCBM40 at 20 µg ml^−1; for Binding intensity on sialoglycan microarray, fold less: RgCBM40, βR1-linked glycans
Procedure: as §1

Compound: CC(=O)NC1C(O)CC(OC2C(O)C(O)OC(CO)C2O)(C(=O)O)OC1C(O)C(O)CO (stereo not drawn) [3′SGal, Neu5Acα3Gal]
- Binding to RgCBM40 detected by STD NMR (RgCBM40 [1]): detected

Compound: CC(=O)NC1C(O)CC(OC2C(O)C(CO)OC(OC3C(O)C(CO)OC(OCCCN=[N+]=[N-])C3NC(C)=O)C2O)(C(=O)O)OC1C(O)C(O)CO (stereo not drawn) [STFαOC3H6N3]
- Binding to RgCBM40 detected by STD NMR (RgCBM40 [1]): detected

Compound: CC(=O)N[C@H]1C2OC(C(=O)O)(C[C@@H]1O)O[C@@H]2[C@H](O)CO (stereo partly drawn) [2,7-anhydro-Neu5Ac]
- Binding to RgCBM40 detected by STD NMR (RgCBM40 [1]): exception

Compound: O=C(CO)N[C@H]1[C@H]([C@H](O)[C@H](O)CO)O[C@@](OC[C@H]2O[C@@H](O[C@H]3[C@H](O)[C@@H](O)C(O)O[C@@H]3CO)[C@H](O)[C@@H](O)[C@H]2O)(C(=O)O)C[C@@H]1O (stereo partly drawn) [6′SLGc, Neu5Gcα6Lac]
- Kd (RgCBM40 [2]; Kd): ~11 mM and > 10 mM
- Binding to RgCBM40 detected by STD NMR (RgCBM40 [1]): detected

Compound: Neu5Acα3Lacβ [GM3]
- Binding of RgGH33 D282A on sialoglycan microarray (RgGH33 D282A): interacted weakly

Compound: Neu5Acα2-6Tn
- Binding of RgCBM40 on sialoglycan microarray (RgCBM40 [3]): bound

Compound: Neu5Acα6GalαOC3H6N3 [Neu5Ac-STn]
- Binding to RgCBM40 detected by STD NMR (RgCBM40 [1]): detected

Compound: Neu5Gcα6GalαOC3H6N3 [Neu5Gc-STn]
- Binding to RgCBM40 detected by STD NMR (RgCBM40 [1]): detected

Compound: CC(=O)N[C@H]1[C@H]([C@H](O)[C@H](O)CO)OC(OC[C@H]2OC(O)[C@H](O)[C@@H](O)[C@H]2O)(C(=O)O)C[C@@H]1O (stereo partly drawn) [6′SGal, Neu5Acα6 Gal]
- Binding to RgCBM40 detected by STD NMR (RgCBM40 [1]): detected

Compound: Neu5Gc9Acα3Galβ3GalNAcβR1 [Neu5Gc9Ac-TF]
- Binding intensity on sialoglycan microarray, fold less (RgCBM40 [3]): 5–10 fold

Compound: CC(=O)N[C@H]1[C@H]([C@H](O)[C@H](O)COC(C)=O)O[C@@](O[C@H]2[C@@H](O)[C@@H](CO)O[C@@H](OCCCN=[N+]=[N-])[C@@H]2O)(C(=O)O)C[C@@H]1O [Neu5,9Ac2α3GalβR1]
- Binding of RgCBM40 on sialoglycan microarray (RgCBM40 [3]): highest binding

Compound: Neu5,9Ac2-TF9Ac2α2-3TF
- Binding of RgCBM40 on sialoglycan microarray (RgCBM40 [3]): bound

Compound: O=C(CO)N[C@H]1[C@H]([C@H](O)[C@H](O)CO)OC(O)(C(=O)O)C[C@@H]1O (stereo partly drawn) [Neu5Gc]
- Binding to RgCBM40 (in words) (RgCBM40 [2]): weak binding
- Kd (RgCBM40 [2]; read-out: Kd): ~21 mM and ~20 mM
- Binding to RgCBM40 detected by STD NMR (RgCBM40 [1]): exception; also recorded: no interaction was observed

Compound: α2-3-sialylated Lewis X [3′SLX]
- Binding of RgCBM40 on sialoglycan microarray (RgCBM40 [3]): bound

Compound: Neu5Acα2-3TF
- Binding of RgCBM40 on sialoglycan microarray (RgCBM40 [3]): bound

Compound: Neu5Gcα3Galβ3GalNAcβR1 [Neu5Gc-TF]
- Binding intensity on sialoglycan microarray, fold less (RgCBM40 [3]): 5–10 fold

Compound: CC(=O)N[C@H]1[C@H]([C@H](O)[C@H](O)CO)O[C@@](O[C@H]2[C@@H](O)[C@@H](CO)O[C@@H](O[C@H]3[C@H](O)[C@@H](NC(C)=O)C(O)O[C@@H]3CO)[C@@H]2O)(C(=O)O)C[C@@H]1O (stereo partly drawn) [3′SLN, Neu5Acα3LacNAcβ]
- Binding of RgGH33 D282A on sialoglycan microarray (RgGH33 D282A): interacted weakly
- Binding to RgCBM40 detected by STD NMR (RgCBM40 [1]): detected

Compound: CC(=O)N[C@H]1[C@H]([C@H](O)[C@H](O)CO)O[C@](OC[C@H]2O[C@@H](O[C@H]3[C@H](O)[C@@H](NC(C)=O)C(O)O[C@@H]3CO)[C@H](O)[C@@H](O)[C@H]2O)(C(=O)O)C[C@@H]1O (stereo partly drawn) [6′SLN, Neu5Acα6LacNAc]
- Binding to RgCBM40 detected by STD NMR (RgCBM40 [1]): detected

Compound: Neu5,9Ac2α2-6Tn
- Binding of RgCBM40 on sialoglycan microarray (RgCBM40 [3]): bound

Compound: O=C(CO)N[C@H]1[C@H]([C@H](O)[C@H](O)CO)O[C@@](O[C@H]2[C@@H](O)[C@@H](CO)O[C@@H](O[C@H]3[C@H](O)[C@@H](O)C(O)O[C@@H]3CO)[C@@H]2O)(C(=O)O)C[C@@H]1O (stereo partly drawn) [3′SLGc, Neu5Gcα3Lac]
- Kd (RgCBM40 [2]; Kd): 2.69 mM and ~3 mM
- Binding to RgCBM40 detected by STD NMR (RgCBM40 [1]): detected

Compound: CC(=O)NC1C(O)CC(OC2C(O)C(CO)OC(OC3C(O)C(CO)OC(O)C3NC(C)=O)C2O)(C(=O)O)OC1C(O)C(O)CO (stereo not drawn) [STF, Neu5Acα3Galβ3GalNAc]
- Binding of RgGH33 D282A on sialoglycan microarray (RgGH33 D282A): interacted weakly

Compound: Neu5Acα3Galβ3GalNAcβ3Lac
- Binding of RgGH33 D282A on sialoglycan microarray (RgGH33 D282A): interacted weakly
